Literature values in US6929797B2, “Targeted therapeutic delivery of vitamin D compounds” (Bone Care International, Inc., priority 1997, dated 2005).
Read-outs that look alike come from different tables or passages of the source.

Columns and labels:
[1] = not given; remark: listed apart in the source
[2] = 0.5 μg/day, postmenopausal women

Compound | effects on bone mass or mineral content (dosage levels below 0.5 μg/day) | toxicity (hypercalcemia and hypercalciuria) ([1]; above 0.5 μg/day) | intestinal calcium absorption and calcium balance [2] | efficacy (bone mass or bone mineral content) (1 μg/day, Japan, population with low calcium intake) | bone mass (Two μg/day, patients exhibiting senile osteoporosis) | patients in whom toxicity occurs ([1]; 1 μg/day) | patients in whom toxicity occurs ([1]; 2 μg/day)
C=C1/C(=C\C=C2/CCC[C@]3(C)[C@@H]([C@H](C)CCCC(C)(C)O)CC[C@@H]23)C[C@@H](O)C[C@@H]1O [1α,25-dihydroxyvitamin D3] | no effects | frequently resulted in toxicity | improved |  |  |  | 
C=C1/C(=C\C=C2/CCC[C@]3(C)[C@@H]([C@H](C)CCCC(C)C)CC[C@@H]23)C[C@@H](O)C[C@@H]1O [1α-hydroxyvitamin D3] |  |  |  | efficacy is found | efficacy in increasing bone mass | approximately 20% | approximately 67%
